Experimental data: ChEMBL document CHEMBL1201862, “PubChem BioAssay data set” (2004)
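Following 48 hours of exposure in 96-well plates, responses at five concentrations were used to interpolate endpoints linearly. GI50 marks 50% less growth.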 Calls of active or inactive are those of the source. Cut-off read from the data, not from the text of the source: active = GI50 up to about 1.1 µM and inactive = higher.

Experiments:
Test in all cases: inhibition of tumour cell growth, NCI panel, 48 h
CAKI-1 = system: CAKI-1
UO-31 = system: UO-31
BT-549 = system: BT-549
SF-295 = system: SF-295
MCF7 = system: MCF7
PC-3 = system: PC-3
SW-620 = system: SW-620
T47D = system: T47D
U-251 = system: U-251
IGROV-1 = system: IGROV-1
SNB-75 = system: SNB-75
COLO 205 = system: COLO 205
NCI-H522 = system: NCI-H522
MDA-N = system: MDA-N
SF-268 = system: SF-268
SNB-19 = system: SNB-19
MDA-MB-231 = system: MDA-MB-231
SR = system: SR
HL-60 = system: HL-60
K562 = system: K562

Structure (SMILES) | GI50 (CAKI-1) | GI50 (UO-31) | GI50 (BT-549) | GI50 (SF-295) | GI50 (MCF7) | GI50 (PC-3) | GI50 (SW-620) | GI50 (T47D) | GI50 (U-251) | GI50 (IGROV-1) | GI50 (SNB-75) | GI50 (COLO 205) | GI50 (NCI-H522) | GI50 (MDA-N) | GI50 (SF-268) | GI50 (SNB-19) | GI50 (MDA-MB-231) | GI50 (SR) | GI50 (HL-60) | GI50 (K562)
COCN1C(=O)[C@@H]2CCCN2C(=O)c2cc(N)ccc21 | > 100 µM (inactive) | > 100 µM (inactive) | > 100 µM (inactive) | > 100 µM (inactive) | > 100 µM (inactive) | > 100 µM (inactive) | > 100 µM (inactive) | > 100 µM (inactive) | > 100 µM (inactive) | > 100 µM (inactive) | > 100 µM (inactive) | < 0.01 µM (active) | > 100 µM (inactive) | > 100 µM (inactive) | > 100 µM (inactive) | > 100 µM (inactive) | > 100 µM (inactive) | – | – | –
CN(Cc1cnc2nc(N)nc(N)c2n1)c1ccc(C(=O)NC(CCS(=O)(=O)O)C(=O)O)cc1 (stereo not drawn) | > 100 µM (inactive) | 2.72 µM (inactive) | > 100 µM (inactive) | 0.681 µM (active) | 0.268 µM (active) | 0.0665 µM (active) | 0.379 µM (active) | > 100 µM (inactive) | – | 0.553 µM (active) | – | > 72.3 µM (inactive) | 0.527 µM (active) | 0.35 µM (active) | 0.465 µM (active) | 7.16 µM (inactive) | > 100 µM (inactive) | 0.136 µM (active) | < 0.0336 µM (active) | –
CCOC(=O)C(NC(=O)c1cccc(Cl)c1)(N1CCN(c2cc3c(cc2F)c(=O)c(C(=O)O)cn3C2CC2)CC1)C(F)(F)F (stereo not drawn) | 17.3 µM (inactive) | 20.1 µM (inactive) | 18.9 µM (inactive) | 21.6 µM (inactive) | – | 13.7 µM (inactive) | 12.2 µM (inactive) | 19.1 µM (inactive) | 5.24 µM (inactive) | 16.1 µM (inactive) | 20.2 µM (inactive) | 16.6 µM (inactive) | – | 15.2 µM (inactive) | 12.5 µM (inactive) | 22.2 µM (inactive) | 15.6 µM (inactive) | 6.61 µM (inactive) | 2.67 µM (inactive) | 4.78 µM (inactive)
CCCCSC1=N/C(=C\c2ccccc2O)C(=O)N1 | > 100 µM (inactive) | 21.6 µM (inactive) | 49.4 µM (inactive) | 92 µM (inactive) | 33.5 µM (inactive) | 23.4 µM (inactive) | > 100 µM (inactive) | 32.7 µM (inactive) | 43.8 µM (inactive) | > 100 µM (inactive) | > 100 µM (inactive) | > 100 µM (inactive) | 69 µM (inactive) | 76 µM (inactive) | > 100 µM (inactive) | 77.8 µM (inactive) | 34 µM (inactive) | – | 94.6 µM (inactive) | 78.3 µM (inactive)
O=C(c1ccccc1Cl)n1oc2ccccc2c1=O | 29.7 µM (inactive) | > 100 µM (inactive) | 84.5 µM (inactive) | > 100 µM (inactive) | 51.1 µM (inactive) | > 100 µM (inactive) | 57 µM (inactive) | > 100 µM (inactive) | > 100 µM (inactive) | 69.2 µM (inactive) | 51.1 µM (inactive) | 35.7 µM (inactive) | 13.8 µM (inactive) | > 100 µM (inactive) | > 100 µM (inactive) | > 100 µM (inactive) | > 100 µM (inactive) | – | 18 µM (inactive) | 7.62 µM (inactive)
O=c1[nH]c(=O)n(C2OC(CO)C(O)C2O)c2nc(-c3ccc(-c4ccccc4)cc3)cnc12 (stereo not drawn) | > 100 µM (inactive) | > 100 µM (inactive) | > 100 µM (inactive) | > 100 µM (inactive) | > 100 µM (inactive) | > 100 µM (inactive) | > 100 µM (inactive) | > 100 µM (inactive) | > 100 µM (inactive) | > 100 µM (inactive) | > 100 µM (inactive) | > 100 µM (inactive) | > 100 µM (inactive) | > 100 µM (inactive) | > 100 µM (inactive) | > 100 µM (inactive) | > 100 µM (inactive) | – | – | > 100 µM (inactive)
